Measurements taken from patent US8394742B2, “Methods, compounds and compositions with genotype selective anticancer activity” (The Translation Genomics Research Institute, priority 2005, dated 2013).

How the values were obtained:
Forf = assay: MTS cell proliferation assay, Forf normal fibroblasts; assay type: cell-based, human; details: even at 200 μM
Procedure: (§1) The inhibition of cell proliferation by library compounds was evaluated using the CellTiter 96 Non-Radioactive Cell Proliferation Assay following the protocol recommended by the manufacturer (Promega, Madison Wis.). Briefly, 2000 cells were seeded in each well of 96-well plates in 90 μl growth medium. Cells were allowed to attach overnight followed by addition of 10 μl of serially diluted compounds into the plates. After incubation for 4 days at 37° C. in a humidified incubator, 20 μl of a 20:1 mixture of (3-(4,5-dimethylthiazol-2-yl)-5-(3-carboxymethoxyphenyl)-2-(4-sulfophenyl)-2H-tetrazolium, inner salt (MTS, 2 mg/ml) and an electron coupling reagent, phenazine methosulfate (PMS, 0.92 mg/ml), was added to each well and incubated for 3 hours at 37° C. Absorbance was then measured using the Wallace Victor microplate reader at 490 nm (PerkinElmer, Wellesley, Mass.). Data were expressed as the percentage of cell growth calculated from the absorbance corrected for background absorbance. The surviving fraction of cells was determined by dividing the mean absorbance values of the treated samples by the mean absorbance values of the DMSO control.
(§2) After generating the isogenic cell lines for the DPC4 gene, Applicants then carried out a screening process using the cell lines with the aim to identify compounds that selectively kill cells with deficient DPC4 function. […]

caspase-3 = assay: Caspase-3 activation analysis by Western blot; assay type: cell-based, human; details: BxPC-3-vector and BxPC-3-DPC4 cells, 25 μM, 24 hours
Procedure: FIG. 5A provides a graphic depiction of the Annexin V staining. The percentage of cells in the indicated M1 region was 4.6% in the untreated control and 8.2%, in the UA62001-treated (25 μM, 24 hours) BxPC-3 cells. FIG. 5B provides an image of the activation of pro-caspase-3 in BxPC-3 cells after UA62001 treatment. Whole cell extracts were prepared from BxPC-3-vector and BxPC-3-DPC4 cells after UA62001 (25 μM, 24 hours) treatment. Each lane was loaded with 20 μg of total protein. Camptothecin treated Jurkat cell lysate (20 μg) was loaded as the positive control. Lane 1, BxPC-3-DPC4; lane 2, BxPC-3-DPC4-UA62001; lane 3, BxPC-3-vector; lane 4, BxPC-3-vector-UA62001; lane 5, Jurkat-camptothecin.
Whole cell extracts were prepared using Nonidet P-40 (NP-40) lysis buffer (1% IGEPAL CA-630, a substitute for NP-40, 150 mM NaCl, 50 mM Tris-HCl [pH 7.4], 2 mM EDTA). […] Protein concentrations of the lysates or fractionates were determined using the BCA reagents (PIERCE). […] DPC4 protein was detected by a monoclonal antibody (Oncogene Research Products, Boston, Mass.). p21 protein was detected by a polyclonal antibody (Cell Signaling Technology, Beverly, Mass.). Both active and proto-form of the caspas-3 were detected by a polyclonal antibody obtained from BD Pharmingen (BD Biosciences Pharmingen, San Diego, Calif.). β-Actin, which served as a loading control was detected by a monoclonal antibody (Sigma). […]

[1] = system: HPDE6-siDPC4 (HPDE6 cells with DPC4 expression stably suppressed by siRNA); assay: MTS cell proliferation assay, HPDE6-siDPC4 cells; assay type: cell-based; details: Homo sapiens
Procedure: At the initial screening, compounds are tested in the MTS assay (or other cell proliferation assays such as SRB and Alamar Blue) against the cell line in which the specific gene is either deleted or suppressed by siRNA at a single dose of 10 μM (Toxicity Screening).
Compounds that show more than 50% cell growth inhibition at this concentration are selected to test against both isogenic cell lines (loss-of-function vs. wild type) at three different concentrations (10, 2 and 0.4 μM, Synthetic lethal Screening). Compounds that show a selectivity index ≧5 are selected for next round of screening—Selectivity Screening.
In the Selectivity Screening, compounds are tested against cancer cell lines with a specific loss-of-function mutation and normal cells (HPDE6 and FORF-TERT). Depending on their approximate potency assessed in the Synthetic lethal Screening, compounds are tested in a range of concentrations (8 concentrations per agent) in Selectivity Screening. Compounds that have nM IC50 values in loss-of-function cells and selectivity index values >10 are selected for phenotypic consequence tests and in vivo evaluations in animal models.
The inhibition of cell proliferation by library compounds was evaluated using the CellTiter 96 Non-Radioactive Cell Proliferation Assay following the protocol recommended by the manufacturer (Promega, Madison Wis.). […]

HS766T (DPC4 deleted) = assay: MTS cell proliferation assay, HS766T cells; assay type: cell-based; details: Homo sapiens
Procedure: as §1, §2

IMR-90 = assay: MTS cell proliferation assay, IMR-90 normal fibroblasts; assay type: cell-based, human; details: IMR-90, even at 200 μM
Procedure: as §1, §2

## O=C1c2ccccc2C(=O)c2c1ccc1c(=O)n(-c3ccccc3)[nH]c21 [UA62001, 2-phenyl-1H-Naphth [2,3-g]indazole-3,6,11(2H)-trione]
Forf
  growth inhibition: little growth inhibition
caspase-3
  cleavage of proto-form of caspase-3: did not induce the cleavage
[1]
  IC50: 6 µM
HS766T (DPC4 deleted)
  IC50: 3.1 µM
IMR-90
  growth inhibition: little growth inhibition
